ChEMBL document CHEMBL3045792, “Synthesis, antimicrobial activity, and molecular modeling of novel 4-(3-(4-benzylpiperazin-1-yl)propoxy)-7-methoxy-3-substituted phenyl-2H-chromen-2-one” (2013)

How the values were obtained:
Assay type in all cases: functional
Settings in all cases: read-out: IZ
Proteus vulgaris [1] = experiment: Antibacterial activity against Proteus vulgaris assessed as growth inhibition at 600 ug/ml by NCCLS […] method
Candida albicans [2] = experiment: Antifungal activity against Candida albicans assessed as growth inhibition at 1200 ug/ml
Exserohilum rostratum [3] = experiment: Antifungal activity against Setosphaeria rostrata assessed as growth inhibition at 1200 ug/ml
Staphylococcus aureus [4] = experiment: Antibacterial activity against Staphylococcus aureus assessed as growth inhibition at 900 ug/ml by NCCLS […] method
Proteus mirabilis [5] = experiment: Antibacterial activity against Proteus mirabilis assessed as growth inhibition at 900 ug/ml by NCCLS […] method
Streptococcus pyogenes [6] = experiment: Antibacterial activity against Streptococcus pyogenes assessed as growth inhibition at 900 ug/ml by NCCLS […] method
Colletotrichum falcatum [7] = experiment: Antifungal activity against Glomerella tucumanensis assessed as growth inhibition at 1200 ug/ml
Bacillus pumilus [8] = experiment: Antibacterial activity against Bacillus pumilus assessed as growth inhibition at 600 ug/ml by NCCLS […] method
Colletotrichum falcatum [9] = experiment: Antifungal activity against Glomerella tucumanensis assessed as growth inhibition at 600 ug/ml
Bacillus subtilis [10] = experiment: Antibacterial activity against Bacillus subtilis assessed as growth inhibition at 600 ug/ml by NCCLS […] method
Exserohilum rostratum [11] = experiment: Antifungal activity against Setosphaeria rostrata assessed as growth inhibition at 900 ug/ml
Escherichia coli [12] = experiment: Antibacterial activity against Escherichia coli assessed as growth inhibition at 600 ug/ml by NCCLS […] method
Klebsiella pneumoniae [13] = experiment: Antibacterial activity against Klebsiella pneumoniae assessed as growth inhibition at 900 ug/ml by NCCLS […] method
Fusarium oxysporum [14] = experiment: Antifungal activity against Fusarium oxysporum assessed as growth inhibition at 900 ug/ml
Klebsiella pneumoniae [15] = experiment: Antibacterial activity against Klebsiella pneumoniae assessed as growth inhibition at 600 ug/ml by NCCLS […] method
Exserohilum rostratum [16] = experiment: Antifungal activity against Setosphaeria rostrata assessed as growth inhibition at 300 ug/ml
Proteus mirabilis [17] = experiment: Antibacterial activity against Proteus mirabilis assessed as growth inhibition at 600 ug/ml by NCCLS […] method
Colletotrichum falcatum [18] = experiment: Antifungal activity against Glomerella tucumanensis assessed as growth inhibition at 900 ug/ml
Bacillus subtilis [19] = experiment: Antibacterial activity against Bacillus subtilis assessed as growth inhibition at 900 ug/ml by NCCLS […] method
Streptococcus pyogenes [20] = experiment: Antibacterial activity against Streptococcus pyogenes assessed as growth inhibition at 600 ug/ml by NCCLS […] method
Klebsiella aerogenes [21] = experiment: Antibacterial activity against Enterobacter aerogenes assessed as growth inhibition at 900 ug/ml by NCCLS […] method
Priestia megaterium [22] = experiment: Antibacterial activity against Bacillus megaterium assessed as growth inhibition at 600 ug/ml by NCCLS […] method
Fusarium oxysporum [23] = experiment: Antifungal activity against Fusarium oxysporum assessed as growth inhibition at 1200 ug/ml
Escherichia coli [24] = experiment: Antibacterial activity against Escherichia coli assessed as growth inhibition at 900 ug/ml by NCCLS […] method
Candida albicans [25] = experiment: Antifungal activity against Candida albicans assessed as growth inhibition at 300 ug/ml
Staphylococcus aureus [26] = experiment: Antibacterial activity against Staphylococcus aureus assessed as growth inhibition at 600 ug/ml by NCCLS […] method
Fusarium oxysporum [27] = experiment: Antifungal activity against Fusarium oxysporum assessed as growth inhibition at 600 ug/ml
Bacillus pumilus [28] = experiment: Antibacterial activity against Bacillus pumilus assessed as growth inhibition at 900 ug/ml by NCCLS […] method
Candida albicans [29] = experiment: Antifungal activity against Candida albicans assessed as growth inhibition at 900 ug/ml
Klebsiella aerogenes [30] = experiment: Antibacterial activity against Enterobacter aerogenes assessed as growth inhibition at 600 ug/ml by NCCLS […] method
Exserohilum rostratum [31] = experiment: Antifungal activity against Setosphaeria rostrata assessed as growth inhibition at 600 ug/ml
Priestia megaterium [32] = experiment: Antibacterial activity against Bacillus megaterium assessed as growth inhibition at 900 ug/ml by NCCLS […] method
Candida albicans [33] = experiment: Antifungal activity against Candida albicans assessed as growth inhibition at 600 ug/ml
Proteus vulgaris [34] = experiment: Antibacterial activity against Proteus vulgaris assessed as growth inhibition at 900 ug/ml by NCCLS […] method
Colletotrichum falcatum [35] = experiment: Antifungal activity against Glomerella tucumanensis assessed as growth inhibition at 300 ug/ml
Fusarium oxysporum [36] = experiment: Antifungal activity against Fusarium oxysporum assessed as growth inhibition at 300 ug/ml

`COc1ccc2c(OCCCN3CCN(Cc4ccc[nH]4)CC3)c(-c3ccccc3)c(=O)oc2c1` gave a zone of inhibition at 600 µg/mL (Proteus vulgaris [1]) of 8.12 mm, a zone of inhibition at 1200 µg/mL (Candida albicans [2]) of 27 mm and a zone of inhibition at 1200 µg/mL (Exserohilum rostratum [3]) of 25.3 mm. It also gave a zone of inhibition at 900 µg/mL (Staphylococcus aureus [4]) of 25.3 mm, a zone of inhibition at 900 µg/mL (Proteus mirabilis [5]) of 19.4 mm and a zone of inhibition at 900 µg/mL (Streptococcus pyogenes [6]) of 18 mm. The zone of inhibition at 1200 µg/mL (Colletotrichum falcatum [7]) was 19.6 mm, the zone of inhibition at 600 µg/mL (Bacillus pumilus [8]) was 7.49 mm and the zone of inhibition at 600 µg/mL (Colletotrichum falcatum [9]) was 5.84 mm. It also gave a zone of inhibition at 600 µg/mL (Bacillus subtilis [10]) of 4.21 mm, a zone of inhibition at 900 µg/mL (Exserohilum rostratum [11]) of 13.9 mm and a zone of inhibition at 600 µg/mL (Escherichia coli [12]) of 3.22 mm. The zone of inhibition at 900 µg/mL (Klebsiella pneumoniae [13]) was 8.12 mm, the zone of inhibition at 900 µg/mL (Fusarium oxysporum [14]) was 20 mm and the zone of inhibition at 600 µg/mL (Klebsiella pneumoniae [15]) was 4.21 mm. It also gave a zone of inhibition at 300 µg/mL (Exserohilum rostratum [16]) of 3.54 mm, a zone of inhibition at 600 µg/mL (Proteus mirabilis [17]) of 10.9 mm and a zone of inhibition at 900 µg/mL (Colletotrichum falcatum [18]) of 10.1 mm. For the same compound, the zone of inhibition at 900 µg/mL (Bacillus subtilis [19]) was 7.87 mm, the zone of inhibition at 600 µg/mL (Streptococcus pyogenes [20]) was 9.1 mm and the zone of inhibition at 900 µg/mL (Klebsiella aerogenes [21]) was 8.9 mm. It also gave a zone of inhibition at 600 µg/mL (Priestia megaterium [22]) of 6.32 mm, a zone of inhibition at 1200 µg/mL (Fusarium oxysporum [23]) of 31.6 mm and a zone of inhibition at 900 µg/mL (Escherichia coli [24]) of 6.04 mm. For the same compound, the zone of inhibition at 300 µg/mL (Candida albicans [25]) was 4.02 mm, the zone of inhibition at 600 µg/mL (Staphylococcus aureus [26]) was 14.8 mm and the zone of inhibition at 600 µg/mL (Fusarium oxysporum [27]) was 10.2 mm. The zone of inhibition at 900 µg/mL (Bacillus pumilus [28]) was 15.5 mm, the zone of inhibition at 900 µg/mL (Candida albicans [29]) was 13.9 mm and the zone of inhibition at 600 µg/mL (Klebsiella aerogenes [30]) was 4.78 mm. The zone of inhibition at 600 µg/mL (Exserohilum rostratum [31]) was 7.01 mm, the zone of inhibition at 900 µg/mL (Priestia megaterium [32]) was 12.4 mm and the zone of inhibition at 600 µg/mL (Candida albicans [33]) was 7.77 mm. For the same compound, the zone of inhibition at 900 µg/mL (Proteus vulgaris [34]) was 16 mm, the zone of inhibition at 300 µg/mL (Colletotrichum falcatum [35]) was 3.02 mm and the zone of inhibition at 300 µg/mL (Fusarium oxysporum [36]) was 5.34 mm.
With `CN[C@@H]1[C@H](O[C@H]2[C@H](O[C@H]3[C@H](O)[C@@H](O)[C@H](N=C(N)N)[C@@H](O)[C@@H]3N=C(N)N)O[C@@H](C)[C@]2(O)C=O)O[C@@H](CO)[C@H](O)[C@H]1O` [STREPTOMYCIN] the zone of inhibition at 600 µg/mL (Proteus vulgaris [1]) was 8.9 mm, the zone of inhibition at 900 µg/mL (Staphylococcus aureus [4]) was 20 mm and the zone of inhibition at 900 µg/mL (Proteus mirabilis [5]) was 20.3 mm. The zone of inhibition at 900 µg/mL (Streptococcus pyogenes [6]) was 16.5 mm, the zone of inhibition at 600 µg/mL (Bacillus pumilus [8]) was 7.25 mm and the zone of inhibition at 600 µg/mL (Bacillus subtilis [10]) was 8.44 mm. It also gave a zone of inhibition at 600 µg/mL (Escherichia coli [12]) of 3.06 mm, a zone of inhibition at 900 µg/mL (Klebsiella pneumoniae [13]) of 6.54 mm and a zone of inhibition at 600 µg/mL (Klebsiella pneumoniae [15]) of 3.24 mm. The zone of inhibition at 600 µg/mL (Proteus mirabilis [17]) was 12.8 mm, the zone of inhibition at 900 µg/mL (Bacillus subtilis [19]) was 16.2 mm and the zone of inhibition at 600 µg/mL (Streptococcus pyogenes [20]) was 8.19 mm. It also gave a zone of inhibition at 900 µg/mL (Klebsiella aerogenes [21]) of 8.76 mm, a zone of inhibition at 600 µg/mL (Priestia megaterium [22]) of 6.23 mm and a zone of inhibition at 900 µg/mL (Escherichia coli [24]) of 6.14 mm. The zone of inhibition at 600 µg/mL (Staphylococcus aureus [26]) was 10.3 mm, the zone of inhibition at 900 µg/mL (Bacillus pumilus [28]) was 14.5 mm and the zone of inhibition at 600 µg/mL (Klebsiella aerogenes [30]) was 4.47 mm. For the same compound, the zone of inhibition at 900 µg/mL (Priestia megaterium [32]) was 12.8 mm and the zone of inhibition at 900 µg/mL (Proteus vulgaris [34]) was 16.1 mm.
For `CCC(C)n1ncn(-c2ccc(N3CCN(c4ccc(OCC5COC(Cn6cncn6)(c6ccc(Cl)cc6Cl)O5)cc4)CC3)cc2)c1=O` (configuration not stated) [ITRACONAZOLE], the zone of inhibition at 1200 µg/mL (Candida albicans [2]) was 23 mm, the zone of inhibition at 1200 µg/mL (Exserohilum rostratum [3]) was 27.4 mm and the zone of inhibition at 1200 µg/mL (Colletotrichum falcatum [7]) was 33.8 mm. The zone of inhibition at 600 µg/mL (Colletotrichum falcatum [9]) was 9.34 mm, the zone of inhibition at 900 µg/mL (Exserohilum rostratum [11]) was 14.8 mm and the zone of inhibition at 900 µg/mL (Fusarium oxysporum [14]) was 20 mm. It also gave a zone of inhibition at 300 µg/mL (Exserohilum rostratum [16]) of 3.56 mm, a zone of inhibition at 900 µg/mL (Colletotrichum falcatum [18]) of 18.3 mm and a zone of inhibition at 1200 µg/mL (Fusarium oxysporum [23]) of 34.4 mm. For the same compound, the zone of inhibition at 300 µg/mL (Candida albicans [25]) was 2.67 mm, the zone of inhibition at 600 µg/mL (Fusarium oxysporum [27]) was 10.8 mm and the zone of inhibition at 900 µg/mL (Candida albicans [29]) was 12 mm. For the same compound, the zone of inhibition at 600 µg/mL (Exserohilum rostratum [31]) was 7.56 mm, the zone of inhibition at 600 µg/mL (Candida albicans [33]) was 5.35 mm and the zone of inhibition at 300 µg/mL (Colletotrichum falcatum [35]) was 4.45 mm. The zone of inhibition at 300 µg/mL (Fusarium oxysporum [36]) was 5.46 mm.
